Laboratory results taken from article PMC5336394 (Structure (London, England : 1993), 2017).

Tested on: CypA
Assay: HA peptide isomerization
Format: biochemical
Conditions: Pro2 of the HA peptide

YPTDVPDYA [HA]
isomerization at Pro2: not isomerized by CypA
